Data taken from ChEMBL document CHEMBL3526048, “In vitro metabolism of rivoglitazone, a novel peroxisome proliferator-activated receptor γ agonist, in rat, monkey, and human liver microsomes and freshly isolated hepatocytes” (Drug Metab Dispos, 2011).

Key:
[1] = Drug metabolism in rat hepatocytes assessed as formation of 2-((4-((2,4-dioxothiazolidin-5-yl)methyl)phenoxy)methyl)-1-methyl-1H-benzo[d]imidazol-6-yl hydrogen sulfate at 30 uM after 3 hrs by radio-HPLC/LC-MS/MS analysis; assay type: ADME, cell-based, Hepatocyte
[2] = Drug metabolism in monkey hepatocytes assessed as formation of 2-mercapto-3-(4-((6-methoxy-1-methyl-1H-benzo[d]imidazol-2-yl)methoxy)phenyl)propanoic acid at 30 uM after 3 hrs by radio-HPLC/LC-MS/MS analysis in presence of UDPGA, UDPGA/SAM and NADPH-generating system; settings: cynomolgus monkey
[3] = target: T1, UDP-glucuronosyltransferase 1A7 (Homo sapiens, UniProt Q9HAW7); assay: Activity of human UGT1A7 expressed in microsomes isolated from baculovirus infected insect cell assessed as enzyme-mediated 2-mercapto-3-(4-((6-methoxy-1-methyl-1H-benzo[d]imidazol-2-yl)methoxy)phenyl)propanoic acid formation at 20 uM after 4 hrs by radio-HPLC/LC-MS/MS analysis in presence of UDPGA; assay type: ADME
T1 sequence (Q9HAW7 whole entry): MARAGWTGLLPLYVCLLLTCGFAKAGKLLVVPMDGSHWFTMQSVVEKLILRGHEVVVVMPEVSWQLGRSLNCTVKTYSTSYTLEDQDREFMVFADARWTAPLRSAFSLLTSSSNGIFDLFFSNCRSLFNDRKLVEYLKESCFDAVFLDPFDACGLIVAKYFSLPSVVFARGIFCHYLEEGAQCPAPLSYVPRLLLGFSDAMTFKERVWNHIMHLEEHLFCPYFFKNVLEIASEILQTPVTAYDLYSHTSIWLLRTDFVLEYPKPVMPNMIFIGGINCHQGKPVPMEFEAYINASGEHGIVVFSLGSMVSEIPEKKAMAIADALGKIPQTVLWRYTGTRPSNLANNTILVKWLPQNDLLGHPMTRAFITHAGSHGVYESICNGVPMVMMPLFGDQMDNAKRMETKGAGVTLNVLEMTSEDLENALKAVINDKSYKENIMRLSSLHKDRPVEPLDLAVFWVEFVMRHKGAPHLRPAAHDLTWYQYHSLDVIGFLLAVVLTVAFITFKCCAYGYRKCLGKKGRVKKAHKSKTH

[4] = target: T2, UDP-glucuronosyltransferase 2B7 (Homo sapiens, UniProt P16662); assay: Activity of human UGT2B7 expressed in microsomes isolated from baculovirus infected insect cell assessed as enzyme-mediated 2-((4-((2,4-dioxothiazolidin-5-yl)methyl)phenoxy)methyl)-1-methyl-1H-benzo[d]imidazol-6-yl hydrogen sulfate formation at 20 uM after 4 hrs by radio-HPLC/LC-MS/MS analysis; assay type: ADME
T2 sequence (P16662 whole entry): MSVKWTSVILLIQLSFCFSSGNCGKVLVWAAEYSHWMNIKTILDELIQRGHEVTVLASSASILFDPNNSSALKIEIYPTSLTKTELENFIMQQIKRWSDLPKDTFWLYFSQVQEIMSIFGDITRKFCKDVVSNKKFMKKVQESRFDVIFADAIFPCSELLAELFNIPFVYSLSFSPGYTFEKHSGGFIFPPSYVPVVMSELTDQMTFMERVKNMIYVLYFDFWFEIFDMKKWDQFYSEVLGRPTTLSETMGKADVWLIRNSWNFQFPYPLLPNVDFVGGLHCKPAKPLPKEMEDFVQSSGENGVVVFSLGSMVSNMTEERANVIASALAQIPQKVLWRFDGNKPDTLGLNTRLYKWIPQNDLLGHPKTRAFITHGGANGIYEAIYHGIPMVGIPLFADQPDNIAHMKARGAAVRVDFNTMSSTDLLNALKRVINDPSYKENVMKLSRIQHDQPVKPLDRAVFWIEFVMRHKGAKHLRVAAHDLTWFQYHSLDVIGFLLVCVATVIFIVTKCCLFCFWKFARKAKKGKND

[5] = Drug metabolism in monkey hepatocytes assessed as formation of 5-(4-((6-hydroxy-1-methyl-1H-benzo[d]imidazol-2-yl)methoxy)benzyl)thiazolidine-2,4-dione at 30 uM after 3 hrs by radio-HPLC/LC-MS/MS analysis in presence of NADPH-generating system and NADPH-generating system/SAM; settings: cynomolgus monkey
[6] = Drug metabolism in human hepatocytes assessed as formation of 3-(4-((6-methoxy-1-methyl-1H-benzo[d]imidazol-2-yl)methoxy)phenyl)-2-(methylthio)propanamide at 30 uM after 3 hrs by radio-HPLC/LC-MS/MS analysis in presence of NADPH-generating system/SAM; assay type: ADME, cell-based, Hepatocyte
[7] = target: T3, UDP-glucuronosyltransferase 2B17 (Homo sapiens, UniProt O75795); assay: Activity of human UGT2B17 expressed in microsomes isolated from baculovirus infected insect cell assessed as enzyme-mediated (2S,3S,4S,5R,6R)-6-((1-carboxy-2-(4-((6-methoxy-1-methyl-1H-benzo[d]imidazol-2-yl)methoxy)phenyl)ethylthio)carbonylamino)-3,4,5-trihydroxytetrahydro-2H-pyran-2-carboxylic acid formation at 20 uM after 4 hrs by radio-HPLC/LC-MS/MS analysis in presence of UDPGA; assay type: ADME
T3 sequence (O75795 whole entry): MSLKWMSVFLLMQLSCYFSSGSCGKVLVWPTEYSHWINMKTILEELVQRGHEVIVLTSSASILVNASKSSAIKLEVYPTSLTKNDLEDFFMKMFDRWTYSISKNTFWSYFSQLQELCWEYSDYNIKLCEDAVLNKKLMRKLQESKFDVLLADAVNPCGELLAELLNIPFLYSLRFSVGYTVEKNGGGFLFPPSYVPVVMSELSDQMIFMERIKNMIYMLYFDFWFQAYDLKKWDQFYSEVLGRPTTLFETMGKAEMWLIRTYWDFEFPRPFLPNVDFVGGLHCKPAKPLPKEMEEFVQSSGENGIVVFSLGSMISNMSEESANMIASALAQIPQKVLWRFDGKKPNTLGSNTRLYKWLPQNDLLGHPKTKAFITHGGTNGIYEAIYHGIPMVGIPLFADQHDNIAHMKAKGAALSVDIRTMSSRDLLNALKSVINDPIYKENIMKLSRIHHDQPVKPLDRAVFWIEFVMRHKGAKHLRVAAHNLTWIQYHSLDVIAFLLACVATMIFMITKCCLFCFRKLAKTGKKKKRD

Liver microsome = assay: Drug metabolism in Sprague-Dawley rat liver microsomes assessed as formation of (2S,3S,4S,5R,6R)-6-((1-carboxy-2-(4-((6-methoxy-1-methyl-1H-benzo[d]imidazol-2-yl)methoxy)phenyl)ethylthio)carbonylamino)-3,4,5-trihydroxytetrahydro-2H-pyran-2-carboxylic acid at 20 uM after 4 hrs by radio-HPLC/LC-MS/MS analysis in presence of UDPGA and UDPGA/SAM; assay type: ADME
Cytochrome P450 2C9 = Cytochrome P450 2C9 (Homo sapiens, UniProt P11712); assay: Activity of human CYP2C9 expressed in microsomes isolated from baculovirus infected insect cell assessed as enzyme-mediated 2-mercapto-3-(4-((6-methoxy-1-methyl-1H-benzo[d]imidazol-2-yl)methoxy)phenyl)propanamide formation at 20 uM after 2 hrs by radio-HPLC/LC-MS/MS analysis in presence of NADPH-generating system and NADPH-generating system/SAM; assay type: ADME
Cytochrome P450 2C9, sequence (P11712 whole entry): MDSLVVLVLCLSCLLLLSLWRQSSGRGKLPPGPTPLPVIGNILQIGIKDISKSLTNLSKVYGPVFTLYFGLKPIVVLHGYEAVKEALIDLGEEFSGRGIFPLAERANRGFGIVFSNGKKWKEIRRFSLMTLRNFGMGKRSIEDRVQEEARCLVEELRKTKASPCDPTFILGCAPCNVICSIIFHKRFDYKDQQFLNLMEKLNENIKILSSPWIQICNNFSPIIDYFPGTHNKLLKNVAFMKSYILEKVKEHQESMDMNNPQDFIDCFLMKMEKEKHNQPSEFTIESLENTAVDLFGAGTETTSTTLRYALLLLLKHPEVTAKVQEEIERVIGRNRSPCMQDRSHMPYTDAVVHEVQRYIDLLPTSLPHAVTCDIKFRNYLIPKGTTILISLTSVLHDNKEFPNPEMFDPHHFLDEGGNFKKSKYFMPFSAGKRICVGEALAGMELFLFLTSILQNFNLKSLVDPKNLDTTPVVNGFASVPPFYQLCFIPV

- Drug metabolism [1]: metabolite_detected
- Drug metabolism [2]: metabolite_not_detected
- Drug metabolism [3]: metabolite_not_detected
- Drug metabolism [4]: metabolite_not_detected
- Drug metabolism [5]: metabolite_detected
- Drug metabolism [6]: metabolite_detected
- Drug metabolism [7]: metabolite_not_detected
- Drug metabolism (Liver microsome): metabolite_detected
- Drug metabolism (Cytochrome P450 2C9): metabolite_detected
Compound: COc1ccc2nc(COc3ccc(C[14CH]4SC(=O)NC4=O)cc3)n(C)c2c1.Cl (racemic)
